The values below come from paper PMC10644342, “Improved Antibacterial Activity of 1,3,4-Oxadiazole-Based Compounds That Restrict Staphylococcus aureus Growth Independent of LtaS Function” (ACS Infectious Diseases, 2023).

In series [1] the test system is LTA. As to the kind of experiment: LTA quantification by Western blot. The series is classed as cell-based, Staphylococcus aureus. The note with it: strain LAC, 1× and 4× the MIC. As to the method: Overnight cultures of S. aureus strains were diluted 1:200 in fresh TSB and grown to an optical density of OD600nm 0.3. […] Vancomycin and daptomycin at 1× and 4× MIC were also included as control antibiotics. Cells were then normalized to have 10 mL of OD600nm 0.6, pelleted at 4000 rpm, and resuspended in 300 μL of PBS containing 200 μg/mL lysostaphin. This suspension was then incubated at 37 °C for 45 min to allow digestion of the cell wall to occur. One hundred microlitres of 4× SDS sample buffer were then added, and the mixture was boiled at 95 °C for 20 min. The insoluble material was then removed by pelleting at 16,000 rpm for 10 min. The supernatant containing LTA was then subjected to SDS-PAGE on a 4–20% Tris-glycine gel (Bio-Rad). The gel was transferred onto a PVDF membrane using a Trans-Blot Turbo Transfer System (Bio-Rad). The membrane was blocked overnight in TBST containing 5% semi-skimmed milk before being incubated with a mouse anti-LTA antibody (Hycult; HM2048; 1:2000 dilution) followed by a goat antimouse-HRP secondary antibody (Proteintech; SA00001; 1:2000 dilution) before being visualized using an Amersham-ECL kit (Cytiva).

The test system of series [2] is HL-60 cell line. The note with it: cited from earlier work.
For series [3], the system named is S. aureus wild type, clpX, ltaS, tarO mutants and ltaS overexpression strains. As to the kind of experiment: MIC against LtaS deletion and overexpression strains. The series is classed as cell-based, Staphylococcus aureus. The note with it: Staphylococcus aureus, NEWMAN. As to the method: S. aureus, S. epidermidis, E. faecalis, and E. faecium strains were routinely cultivated on tryptic soy agar (TSA) and grown for 18 h at 37 °C. S. aureus single colonies were subsequently transferred into 2 mL of tryptic soy broth (TSB) and grown for a further 18 h at 37 °C while being shaken at 180 rpm. S. pyogenes, S. agalactiae, and S. dysgalactiae strains were routinely cultured on TSA supplemented with 5% sheep blood and grown for 18 h at 37 °C with 5% CO2. E. coli was grown in LB broth at 37 °C. For LtaS-deficient strains, TSB was supplemented with 0.5 M NaCl to provide an osmotically balanced environment and instead grown at 30 °C. For strains harboring the pRMC2 tetracycline inducible vector,[61] the growth medium was supplemented with 10 μg/mL chloramphenicol and […] anhydrotetracycline hydrochloride (Sigma). Phenylalanine-arginine β-naphthylamide (PAβN) (Sigma) was dissolved in sterile water.
B. subtilis, staphylococcal, and enterococcal strains were grown in Mueller Hinton broth (MHB), while streptococcal strains were grown in MHB supplemented with 5% laked horse blood. All strains were grown for 18 h at 37 °C. The overnight cultures were subsequently subcultured 1:200 and grown to the exponential phase (OD600nm = 0.5–0.6) in fresh broth. 1771 and its derivatives 9–14 were reconstituted in DMSO and further diluted by performing a 1:2 serial dilution ranging between 256 and 0.125 μg/mL in a 96-well microtiter plate. One hundred microliters of 0.5 McFarland standardized inoculum (approximately equal to 5 × 10^5 cfu) were then dispensed into each well in the 96-well microtiter plate. The plate was incubated for 18 h at 37 °C.
For overexpression studies, full-length ltaS was amplified by PCR using MRSA strian LAC genomic DNA, primer pair LtaS-FW: 5′-[…]-3′ and LtaS-RV: 5′-[…]-3′, and Phusion High-Fidelity DNA Polymerase (Thermo Fisher). The resulting PCR product was cloned into the tetracycline inducible plasmid pRMC2 using SacI and KpnI restriction sites and T4 ligase (NEB). The cloned vector was subsequently transformed into RN4220 followed by LAC through electroporation.

For series [4], the system named is LtaS. The arrangement: method as in PMID 29300473. The note with it: LtaS in artificial liposomes; cited from earlier work.
The subject of series [5] is S. aureus. The arrangement: method as in PMID 23401520. The note with it: cited from earlier work.

The structures appear in SMILES notation. Values after ≈ are worked out from the molar mass of the structure shown. Read-outs that look alike come from different tables or passages of the source. Bounds are passed on as bounds.

Turning to `CN[C@H](CC(C)C)C(=O)N[C@H]1C(=O)N[C@@H](CC(N)=O)C(=O)N[C@H]2C(=O)N[C@H]3C(=O)N[C@H](C(=O)N[C@H](C(=O)O)c4cc(O)cc(O)c4-c4cc3ccc4O)[C@H](O)c3ccc(c(Cl)c3)Oc3cc2cc(c3O[C@@H]2O[C@H](CO)[C@@H](O)[C@H](O)[C@H]2O[C@H]2C[C@](C)(N)[C@H](O)[C@H](C)O2)Oc2ccc(cc2Cl)[C@H]1O` [vancomycin], the “LTA signal by Western blot” value in series [1] was “No reduction in LTA”. In addition, the “Cell health index (CHI)” value in series [2] (antibiotics used in the training set, Table S2) is 0.16.
For the compound `Nc1c(/N=N/c2ccc(-c3ccc(/N=N/c4cc(S(=O)(=O)O)c5ccccc5c4N)cc3)cc2)cc(S(=O)(=O)O)c2ccccc12` [Congo red], the MIC in series [3] is > 512 µg/mL; in series [3] (Newman ΔtarO) it was 64 µg/mL (≈ 98.1 µM); in series [3] (Newman ΔtarO pRMC2 (empty vector)), 64 µg/mL (≈ 98.1 µM); in series [3] (Newman ΔtarO pltaS (ltaS overexpression)) it was 256 µg/mL (≈ 392 µM). Moreover, the “inhibition of LtaS polymerization activity” value in series [4] was “blocked LtaS function”.
Consider `[H]/N=C(/N)N[C@H]1[C@H](O)[C@@H](O)[C@H](O[C@@H]2O[C@@H](C)[C@](O)(C=O)[C@H]2O[C@@H]2O[C@@H](CO)[C@H](O)[C@@H](O)[C@@H]2NC)[C@@H](N/C(N)=N\[H])[C@@H]1O` [streptomycin], for which, in series [5], the “frequency of mutant selection” value is given as < 10^–7. In addition, the “Cell health index (CHI)” value in series [2] is on record as 0.19.
On to `CCCCCCCCCC(=O)N[C@@H](Cc1c[nH]c2ccccc12)C(=O)N[C@H](CC(N)=O)C(=O)N[C@@H](CC(=O)O)C(=O)N[C@@H]1C(=O)NCC(=O)N[C@@H](CCCN)C(=O)N[C@@H](CC(=O)O)C(=O)N[C@H](C)C(=O)N[C@@H](CC(=O)O)C(=O)NCC(=O)N[C@H](CO)C(=O)N[C@@H]([C@H](C)CC(=O)O)C(=O)N[C@@H](CC(=O)c2ccccc2N)C(=O)O[C@@H]1C` [daptomycin], for which the “LTA signal by Western blot” value in series [1] was “No reduction in LTA”.
Turning to `Oc1cc(Cl)ccc1Oc1ccc(Cl)cc1Cl` [triclosan], in series [1], the “LTA signal by Western blot” value is recorded as “substantial decrease in LTA production”.
